“Also recorded” adds a separate entry of the source.

The target in one data set is T1, HER2 (Homo sapiens, UniProt P04626).
T1 construct: purchased Reaction Biology Corp
Kind of data set: HotSpot in vitro kinase assay, HER2. Conditions: single dose 10 µM compound, 10 µM ATP. It is filed as biochemical.

Another data set addresses T2, EGFR (Homo sapiens, UniProt P00533).
T2 construct: purchased Reaction Biology Corp
Description: HotSpot in vitro kinase assay, EGFR. It is filed as biochemical. Conditions: for inhibition at 10 µM: single dose 10 µM compound, 10 µM ATP.

For another data set, the target named is T3, c-MET (Homo sapiens, UniProt P08581).
T3 construct: purchased Reaction Biology Corp
Kind of data set: Kinase selectivity panel, c-MET. It is filed as biochemical. To be noted: single dose 10 µM.

A further data set concerns the target T4, FGFR1 (Homo sapiens, UniProt P11362).
T4 construct: purchased Reaction Biology Corp
Kind of data set: Kinase selectivity panel, FGFR1. It is filed as biochemical. Conditions: single dose 10 µM.

For the next data set, the target named is T5, KDR/VEGFR2 (Homo sapiens, UniProt P35968).
T5 construct: purchased Reaction Biology Corp
Description: Kinase selectivity panel, KDR/VEGFR2. It is filed as biochemical. To be noted: single dose 10 µM.

A further data set addresses T6, CDK2/cyclin A (Homo sapiens, UniProt P24941).
T6 construct: purchased Reaction Biology Corp
Description: Kinase selectivity panel, CDK2/cyclin A. The format is biochemical. Conditions: single dose 10 µM.

For a further data set, the target named is T7, P38a/MAPK14 (Homo sapiens, UniProt Q16539).
T7 construct: purchased Reaction Biology Corp
Description: Kinase selectivity panel, P38a/MAPK14. It is filed as biochemical. To be noted: single dose 10 µM.

T4 sequence (P11362 22-822): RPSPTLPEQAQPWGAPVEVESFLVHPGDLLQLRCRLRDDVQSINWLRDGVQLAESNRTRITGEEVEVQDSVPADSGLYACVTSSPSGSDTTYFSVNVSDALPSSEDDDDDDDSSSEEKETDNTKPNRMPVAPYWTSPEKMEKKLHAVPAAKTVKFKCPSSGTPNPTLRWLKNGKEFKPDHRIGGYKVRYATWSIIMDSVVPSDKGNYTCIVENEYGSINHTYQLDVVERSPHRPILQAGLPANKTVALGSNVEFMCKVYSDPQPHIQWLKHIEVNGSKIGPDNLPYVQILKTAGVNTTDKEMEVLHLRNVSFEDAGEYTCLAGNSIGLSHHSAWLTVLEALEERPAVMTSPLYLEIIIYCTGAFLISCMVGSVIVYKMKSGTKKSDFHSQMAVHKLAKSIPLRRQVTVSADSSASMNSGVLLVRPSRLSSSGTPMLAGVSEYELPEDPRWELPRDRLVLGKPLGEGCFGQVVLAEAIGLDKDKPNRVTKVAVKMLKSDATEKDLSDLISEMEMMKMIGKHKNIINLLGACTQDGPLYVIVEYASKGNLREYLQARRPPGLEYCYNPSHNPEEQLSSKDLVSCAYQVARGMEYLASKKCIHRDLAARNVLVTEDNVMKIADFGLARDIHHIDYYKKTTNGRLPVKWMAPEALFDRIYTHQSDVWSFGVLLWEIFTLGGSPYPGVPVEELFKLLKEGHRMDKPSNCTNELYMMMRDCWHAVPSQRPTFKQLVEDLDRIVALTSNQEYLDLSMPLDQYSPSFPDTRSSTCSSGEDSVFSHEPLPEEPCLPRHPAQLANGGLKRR
T3 sequence (P08581 25-1390): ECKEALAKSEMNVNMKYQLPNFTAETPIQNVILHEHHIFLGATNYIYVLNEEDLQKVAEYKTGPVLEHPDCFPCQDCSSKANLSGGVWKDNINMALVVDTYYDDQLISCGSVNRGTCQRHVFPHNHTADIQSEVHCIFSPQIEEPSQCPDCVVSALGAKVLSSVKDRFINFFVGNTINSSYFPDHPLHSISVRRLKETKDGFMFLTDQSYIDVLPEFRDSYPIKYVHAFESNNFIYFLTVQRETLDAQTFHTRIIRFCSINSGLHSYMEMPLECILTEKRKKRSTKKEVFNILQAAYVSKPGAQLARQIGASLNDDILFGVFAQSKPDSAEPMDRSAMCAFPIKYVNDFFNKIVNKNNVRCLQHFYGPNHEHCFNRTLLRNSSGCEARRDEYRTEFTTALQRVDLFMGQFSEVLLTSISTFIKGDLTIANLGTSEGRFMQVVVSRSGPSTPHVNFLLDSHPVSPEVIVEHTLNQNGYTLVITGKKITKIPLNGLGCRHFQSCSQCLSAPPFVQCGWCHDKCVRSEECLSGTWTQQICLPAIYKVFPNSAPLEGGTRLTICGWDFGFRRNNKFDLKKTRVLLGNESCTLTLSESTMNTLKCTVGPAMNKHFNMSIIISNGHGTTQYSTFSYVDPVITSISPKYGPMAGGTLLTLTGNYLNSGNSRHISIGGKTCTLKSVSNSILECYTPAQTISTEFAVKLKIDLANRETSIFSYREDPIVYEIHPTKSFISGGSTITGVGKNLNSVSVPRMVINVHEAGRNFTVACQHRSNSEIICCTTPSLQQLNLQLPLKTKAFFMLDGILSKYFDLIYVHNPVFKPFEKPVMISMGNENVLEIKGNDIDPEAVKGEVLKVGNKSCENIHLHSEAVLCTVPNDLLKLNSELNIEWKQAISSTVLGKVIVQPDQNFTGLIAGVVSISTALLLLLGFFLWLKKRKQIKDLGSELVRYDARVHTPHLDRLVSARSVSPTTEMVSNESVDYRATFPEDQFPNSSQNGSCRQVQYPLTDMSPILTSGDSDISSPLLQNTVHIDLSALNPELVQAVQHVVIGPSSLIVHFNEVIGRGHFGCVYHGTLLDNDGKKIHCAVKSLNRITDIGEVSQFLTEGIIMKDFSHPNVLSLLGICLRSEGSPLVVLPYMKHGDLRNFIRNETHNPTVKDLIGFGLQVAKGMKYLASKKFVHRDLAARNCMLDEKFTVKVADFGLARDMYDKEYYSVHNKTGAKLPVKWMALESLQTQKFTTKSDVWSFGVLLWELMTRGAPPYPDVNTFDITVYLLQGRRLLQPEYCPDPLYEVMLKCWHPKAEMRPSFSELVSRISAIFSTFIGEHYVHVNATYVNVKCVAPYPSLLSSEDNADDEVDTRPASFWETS
T1 sequence (P04626 23-1255): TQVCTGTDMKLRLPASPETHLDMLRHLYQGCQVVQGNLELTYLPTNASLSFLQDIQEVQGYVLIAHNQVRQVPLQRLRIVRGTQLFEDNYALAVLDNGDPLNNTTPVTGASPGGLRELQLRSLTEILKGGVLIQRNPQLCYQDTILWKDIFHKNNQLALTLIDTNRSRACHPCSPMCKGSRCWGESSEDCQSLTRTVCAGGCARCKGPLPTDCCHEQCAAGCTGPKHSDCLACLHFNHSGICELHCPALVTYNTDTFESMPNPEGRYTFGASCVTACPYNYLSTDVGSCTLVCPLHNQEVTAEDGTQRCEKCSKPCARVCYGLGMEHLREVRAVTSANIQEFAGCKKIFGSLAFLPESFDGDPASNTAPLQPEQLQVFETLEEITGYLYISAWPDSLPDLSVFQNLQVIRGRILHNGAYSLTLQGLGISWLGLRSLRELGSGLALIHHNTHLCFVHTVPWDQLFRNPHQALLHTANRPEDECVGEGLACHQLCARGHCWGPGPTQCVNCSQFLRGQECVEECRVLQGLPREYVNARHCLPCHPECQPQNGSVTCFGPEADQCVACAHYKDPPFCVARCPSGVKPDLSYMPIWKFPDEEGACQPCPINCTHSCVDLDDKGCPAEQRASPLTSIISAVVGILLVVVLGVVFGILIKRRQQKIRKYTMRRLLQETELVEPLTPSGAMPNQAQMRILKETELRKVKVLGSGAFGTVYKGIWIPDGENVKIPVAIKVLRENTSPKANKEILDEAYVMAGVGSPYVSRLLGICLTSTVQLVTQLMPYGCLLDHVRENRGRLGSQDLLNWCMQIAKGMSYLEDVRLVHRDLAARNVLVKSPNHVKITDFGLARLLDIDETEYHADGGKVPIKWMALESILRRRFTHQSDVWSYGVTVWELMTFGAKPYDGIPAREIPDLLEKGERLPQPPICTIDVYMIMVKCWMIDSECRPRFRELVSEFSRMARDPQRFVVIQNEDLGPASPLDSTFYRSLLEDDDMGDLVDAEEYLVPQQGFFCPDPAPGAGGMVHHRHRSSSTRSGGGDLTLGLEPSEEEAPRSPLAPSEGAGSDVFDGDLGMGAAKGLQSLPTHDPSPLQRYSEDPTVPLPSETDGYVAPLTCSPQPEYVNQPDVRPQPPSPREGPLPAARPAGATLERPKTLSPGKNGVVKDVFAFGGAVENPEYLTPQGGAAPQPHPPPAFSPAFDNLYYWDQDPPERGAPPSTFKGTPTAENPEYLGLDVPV
T7 sequence (Q16539 whole entry): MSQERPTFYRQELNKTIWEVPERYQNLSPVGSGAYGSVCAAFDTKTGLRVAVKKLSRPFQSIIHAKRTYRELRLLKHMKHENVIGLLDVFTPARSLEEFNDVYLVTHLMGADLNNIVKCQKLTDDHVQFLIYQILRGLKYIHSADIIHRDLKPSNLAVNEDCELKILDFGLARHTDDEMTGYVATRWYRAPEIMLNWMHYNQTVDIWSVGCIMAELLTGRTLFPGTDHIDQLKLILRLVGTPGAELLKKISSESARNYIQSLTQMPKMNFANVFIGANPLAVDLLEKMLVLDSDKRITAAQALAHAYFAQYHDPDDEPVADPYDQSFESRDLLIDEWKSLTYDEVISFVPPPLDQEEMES
T5 sequence (P35968 20-1356): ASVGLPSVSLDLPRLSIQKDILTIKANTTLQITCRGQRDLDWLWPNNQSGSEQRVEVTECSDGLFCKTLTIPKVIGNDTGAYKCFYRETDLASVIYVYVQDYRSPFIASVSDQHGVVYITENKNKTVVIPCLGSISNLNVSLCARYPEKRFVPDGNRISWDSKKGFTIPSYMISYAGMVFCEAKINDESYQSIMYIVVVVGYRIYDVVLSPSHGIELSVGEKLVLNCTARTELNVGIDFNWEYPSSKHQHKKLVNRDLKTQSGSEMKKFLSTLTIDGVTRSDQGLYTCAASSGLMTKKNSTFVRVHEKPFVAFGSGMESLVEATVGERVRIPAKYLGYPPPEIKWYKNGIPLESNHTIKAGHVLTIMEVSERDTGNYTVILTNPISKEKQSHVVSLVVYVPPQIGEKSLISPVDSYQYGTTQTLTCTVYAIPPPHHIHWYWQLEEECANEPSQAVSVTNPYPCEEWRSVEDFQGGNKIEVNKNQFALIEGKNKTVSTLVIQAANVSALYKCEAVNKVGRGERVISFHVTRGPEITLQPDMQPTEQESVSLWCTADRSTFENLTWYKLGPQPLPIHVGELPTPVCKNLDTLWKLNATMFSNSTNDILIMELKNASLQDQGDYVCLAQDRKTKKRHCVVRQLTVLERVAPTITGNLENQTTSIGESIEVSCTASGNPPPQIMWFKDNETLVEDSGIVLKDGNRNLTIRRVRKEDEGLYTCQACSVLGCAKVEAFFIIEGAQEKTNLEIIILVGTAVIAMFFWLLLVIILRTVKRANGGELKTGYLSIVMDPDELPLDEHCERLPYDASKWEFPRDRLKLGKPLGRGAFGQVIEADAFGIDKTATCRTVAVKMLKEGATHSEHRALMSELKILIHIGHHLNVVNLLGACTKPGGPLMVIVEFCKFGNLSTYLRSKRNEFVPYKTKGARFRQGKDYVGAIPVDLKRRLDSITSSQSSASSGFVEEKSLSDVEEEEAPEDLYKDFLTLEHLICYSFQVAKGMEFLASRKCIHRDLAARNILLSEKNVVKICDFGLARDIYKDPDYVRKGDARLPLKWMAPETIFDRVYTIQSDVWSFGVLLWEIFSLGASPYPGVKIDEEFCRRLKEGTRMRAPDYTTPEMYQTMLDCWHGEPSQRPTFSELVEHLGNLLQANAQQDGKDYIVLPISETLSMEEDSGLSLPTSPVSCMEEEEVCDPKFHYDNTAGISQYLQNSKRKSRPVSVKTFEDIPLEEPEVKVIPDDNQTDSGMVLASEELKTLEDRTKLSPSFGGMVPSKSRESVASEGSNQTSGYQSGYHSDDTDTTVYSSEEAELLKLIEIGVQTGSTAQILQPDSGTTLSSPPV

Regarding `COc1cc2ncnc(Nc3ccc4ncccc4c3)c2cc1OCCCn1ccnc1[N+](=O)[O-]` [Compound 6a, 7-Methoxy-6-(3-(2-nitro-1H-imidazol-1-yl)propoxy)-N-(quinolin-6-yl)quinazolin-4-amine], the melting point was 249 to 250 °C. The inhibition at 10 µM at HER2 came out at 74.7%. Besides, at EGFR, the inhibition at 10 µM was 98.8%.
The like results for `COc1cc2ncnc(Nc3ccc4ncccc4c3)c2cc1OCCCCn1ccnc1[N+](=O)[O-]` [Compound 6b, 7-Methoxy-6-(4-(2-nitro-1H-imidazol-1-yl)butoxy)-N-(quinolin-6-yl)quinazolin-4-amine] were, in that order, 201 to 202 °C, 78% and 99.3%.
The matching figures for `COc1cc2ncnc(Nc3ccc4ncccc4c3)c2cc1OCCCCCn1ccnc1[N+](=O)[O-]` [Compound 6c, 7-Methoxy-6-((5-(2-nitro-1H-imidazol-1-yl)pentyl)oxy)-N-(quinolin-6-yl)quinazolin-4-amine]: 194 to 195 °C, 90% and 99.3%.
The matching figures for `COc1cc2ncnc(Nc3ccc4ncccc4c3)c2cc1OCCCCCCn1ccnc1[N+](=O)[O-]` [Compound 6d, 7-Methoxy-6-((6-(2-nitro-1H-imidazol-1-yl)hexyl)oxy)-N-(quinolin-6-yl)quinazolin-4-amine]: 176 to 177 °C, 79.7% and 99.1%.
`COc1cc2ncnc(Nc3ccc(C#N)cc3)c2cc1OCCCn1ccnc1[N+](=O)[O-]` [Compound 6e, 4-((7-Methoxy-6-(3-(2-nitro-1H-imidazol-1-yl)propoxy)quinazolin-4-yl)amino)benzonitrile] had a melting point of 245 to 246 °C. For the same compound, the inhibition at 10 µM on HER2 was 8.78%. Also, the inhibition at 10 µM on EGFR was 67.3%.
The like results for `COc1cc2ncnc(Nc3ccc(C#N)cc3)c2cc1OCCCCn1ccnc1[N+](=O)[O-]` [Compound 6f, 4-((7-Methoxy-6-(4-(2-nitro-1H-imidazol-1-yl)butoxy)quinazolin-4-yl)amino)benzonitrile] were, in that order, 200 to 201 °C, 11.7% and 76.5%.
The like results for `COc1cc2ncnc(Nc3ccc(C#N)cc3)c2cc1OCCCCCn1ccnc1[N+](=O)[O-]` [Compound 6g, 4-((7-Methoxy-6-((5-(2-nitro-1H-imidazol-1-yl)pentyl)oxy)quinazolin-4-yl)amino)benzonitrile] were, in that order, 196 to 197 °C, 43.1% and 91.8%.
The matching figures for `COc1cc2ncnc(Nc3ccc(C#N)cc3)c2cc1OCCCCCCn1ccnc1[N+](=O)[O-]` [Compound 6h, 4-((7-Methoxy-6-((6-(2-nitro-1H-imidazol-1-yl)hexyl)oxy)quinazolin-4-yl)amino)benzonitrile]: 191 to 192 °C, 47.3% and 94.7%.
With `COc1cc2ncnc(Nc3ccc(OCc4ccccn4)c(Cl)c3)c2cc1OCCCn1ccnc1[N+](=O)[O-]` [Compound 6i, N-(3-Chloro-4-(pyridin-2-ylmethoxy)phenyl)-7-methoxy-6-(3-(2-nitro-1H-imidazol-1-yl)propoxy)quinazolin-4-amine], the melting point lay in the range of 184 to 185 °C. Further, at HER2, the inhibition at 10 µM came to 87.2%. At EGFR, the inhibition at 10 µM was found to be 97.7%.
`COc1cc2ncnc(Nc3ccc(OCc4ccccn4)c(Cl)c3)c2cc1OCCCCn1ccnc1[N+](=O)[O-]` [Compound 6j, N-(3-Chloro-4-(pyridin-2-ylmethoxy)phenyl)-7-methoxy-6-(4-(2-nitro-1H-imidazol-1-yl)butoxy)quinazolin-4-amine]: the inhibition at 10 µM against HER2 is 96.7%; against c-MET it was 19.3%; on EGFR, 99%; against FGFR1, 13.9%; against KDR/VEGFR2, 10.3%; on CDK2/cyclin A, -0.83%. Moreover, at P38a/MAPK14, the inhibition at 10 µM is -33.3%. The “% Kinase Inhibition at 10 µM c-MET” value on c-MET was “almost no inhibitory activity; also recorded: poor to weak inhibitory activity”. The compound also returned an IC50 at EGFR (10-dose assay, 3-fold serial dilution starting at 10 µM) of 1.8 nM. Besides, the “fold more potent than lapatinib over EGFR” value on EGFR (ratio of EGFR IC50 values) was found to be 6 fold. In addition, the “fold more potent than staurosporine over EGFR” value at EGFR (ratio of EGFR IC50 values) is given as 50 fold. The “% Kinase Inhibition at 10 µM FGFR1” value at FGFR1 is “almost no inhibitory activity; also recorded: poor to weak inhibitory activity”. Also, the “% Kinase Inhibition at 10 µM KDR/VEGFR2” value on KDR/VEGFR2 is given as “almost no inhibitory activity; also recorded: poor to weak inhibitory activity”. The “% Kinase Inhibition at 10 µM CDK2/cyclin A” value at CDK2/cyclin A is “almost no inhibitory activity; also recorded: poor to weak inhibitory activity”. The “% Kinase Inhibition at 10 µM P38a/MAPK14” value at P38a/MAPK14 is “almost no inhibitory activity; also recorded: poor to weak inhibitory activity”.
Compound `COc1cc2ncnc(Nc3ccc(OCc4ccccn4)c(Cl)c3)c2cc1OCCCCCn1ccnc1[N+](=O)[O-]` [Compound 6k, N-(3-Chloro-4-(pyridin-2-ylmethoxy)phenyl)-7-methoxy-6-((5-(2-nitro-1H-imidazol-1-yl)pentyl)oxy)quinazolin-4-amine] had a melting point of 158 to 159 °C. Also, the inhibition at 10 µM against HER2 amounted to 91.2%. Further, at EGFR, the inhibition at 10 µM came out at 98.6%.
The like results for `COc1cc2ncnc(Nc3ccc(OCc4ccccn4)c(Cl)c3)c2cc1OCCCCCCn1ccnc1[N+](=O)[O-]` [Compound 6l, N-(3-Chloro-4-(pyridin-2-ylmethoxy)phenyl)-7-methoxy-6-((6-(2-nitro-1H-imidazol-1-yl)hexyl)oxy)quinazolin-4-amine] were, in that order, 191 to 192 °C, 89% and 98.6%.

Values taken from publication PMC9862743 (Pharmaceuticals, 2022).
